Source: patent publication US20230255197A1, “INFLUENCE OF THE MORPHOLOGICAL AND THE STRUCTURAL CHANGES ON THE ANTIMICROBIAL ACTIVITIES OF TITANATE NANOWIRES” (BOARD OF TRUSTEES OF THE UNIVERSITY OF ARKANSAS, priority 2022, published 2023)

Test system: E. coli cells
Assay: E. coli growth in LB medium in 96-well plates, cell growth monitored by absorbance at 600 nm
Type: cell-based
Conditions: 37° C., O.D. at 600 nm = 0.25, read from FIG. 2, chloramphenicol:nanomaterial w/w 1:10
Method: In step (3), to test the antimicrobial efficiency, solution of E. coli cells were inoculated into fresh LB medium and incubated at 37° C. overnight. In one embodiment, 5µL solution of E. coli cells was inoculated into 2 ml of fresh LB medium. Sample of the overnight culture was transferred into each well of a 96-well plate and further grown with 200 µL fresh LB medium. To test antimicrobial activities, different concentrations of antimicrobial agents alone, TiO2 alone, and TiO2 nanowires - chloramphenicol complex were added to the LB medium with E. coli cells. It should be noted that same procedure was followed to prepare different concentrations (1, 2, 3, 4, and 5 µg/ml) of either chloramphenicol alone, nanomaterials alone or a mixture of both. Three identical replicates were prepared on the plate for each assigned material. Then, the 96-well plates were sealed with an oxygen-permeable membrane and the cell growth was monitored by reading the absorbance at 600 nm with microplate readers at 37° C. continuously. Equal amounts of chloramphenicol were mixed with each sample of the assigned version of nanomaterials (Na-TiO2 and K-TiO2) with a w/w ratio of 1:10. […]

O=C(N[C@H](CO)[C@H](O)c1ccc([N+](=O)[O-])cc1)C(Cl)Cl [chloramphenicol]
concentration of chloramphenicol necessary to reach the same O.D. reading 0.25 (same degree of antimicrobial activity): 5 µg/mL
